Data as given in PMC9311539, “Antibacterial Activity against Clinical Isolates and In Vivo Efficacy of Coralmycins” (Antibiotics, 2022).
Converted amounts (≈) assume the structure as drawn. Where two headings read alike, the source gives them in different places.

What was measured:
[1] = system: MSSA; assay: MIC, broth microdilution, clinical isolates: MSSA; format: cell-based; conditions: Staphylococcus aureus; for MIC90: read-out: MIC90
Method: (§1) To assess the MICs for antibiotic susceptibility, Gram-positive bacteria isolated from human clinical specimens were obtained from several general hospitals in Seoul, Korea, during 2002–2018. Staphylococcus aureus Giorgio and Streptococcus pneumoniae ATCC49619 were used to test in vivo efficacies against […], in mice.
(§2) The MICs of the antimicrobial agents were determined by a twofold microdilution broth method, as described by the Clinical and Laboratory Standards Institute. Briefly, test organisms were grown on Mueller–Hinton agar (MHA, BD Difco, Sparks, MD, USA) plates, subcultured into cation-adjusted Mueller–Hinton broth (CAMHB, BD Difco, Sparks, MD, USA), and incubated for 18 h at 35 °C. For S. pneumoniae culture, 5% sheep blood (Hanil Comed, Seongnam, Korea) was added. The cultured bacteria were diluted using phosphate-buffered saline (PBS) to achieve a bacterial cell density of approximately 5 × 10^6 CFU/mL. All test organisms were loaded into 96-well plates containing serial dilutions of the antimicrobial agents to achieve a concentration of 5 × 10^4 CFU/well. The plates were incubated at 35 °C for 18–20 h and examined for bacterial growth.

[2] = system: VRE; assay: MIC, broth microdilution, clinical isolates: VRE; format: cell-based, vancomycin-resistant Enterococcus; conditions: for MIC50: read-out: MIC50
Method: as §1, §2

[3] = system: S. pneumoniae; assay: MIC, broth microdilution, clinical isolates: S. pneumoniae; format: cell-based, Streptococcus pneumoniae; conditions: for MIC50: read-out: MIC50
Method: as §1, §2

[4] = system: Vancomycin-sensitive E. faecalis; assay: MIC, broth microdilution, clinical isolates: vancomycin-sensitive E. faecalis; format: cell-based, Enterococcus faecalis; conditions: Enterococcus faecalis, 32 clinical isolates; for MIC50: read-out: MIC50; for MIC90: read-out: MIC90
Method: as §1, §2

[5] = system: Vancomycin-sensitive E. faecium; assay: MIC, broth microdilution, clinical isolates: vancomycin-sensitive E. faecium; format: cell-based, Enterococcus faecium; conditions: Enterococcus faecium, 32 clinical isolates; for MIC50: read-out: MIC50; for MIC90: read-out: MIC90
Method: as §1, §2

[6] = system: MRSA; assay: MIC, broth microdilution, clinical isolates: MRSA; format: cell-based, Staphylococcus aureus; conditions: Staphylococcus aureus, MRSA, 42 clinical isolates; for MIC50: read-out: MIC50; for MIC90: read-out: MIC90
Method: as §1, §2

[7] = system: CNS (coagulase-negative staphylococci); assay: MIC, broth microdilution, clinical isolates: CNS; format: cell-based; conditions: 31 clinical isolates; for MIC50: read-out: MIC50; for MIC90: read-out: MIC90
Method: as §1, §2

[8] = highly protein-bound antibacterial agents in clinical use; cited from earlier work
[9] = system: S. aureus Giorgio; assay: Time-kill assay, S. aureus Giorgio; format: cell-based, Staphylococcus aureus; conditions: 2× and 4× MIC, 24 h
Method: (§3) Time-kill analysis was performed by the NCCLS M26-A method. The test organisms (S. aureus Giorgio, S. pneumoniae ATCC49619, MRSA CCARM 3167, and VRE 3) incubated in CAMHB for 18 h at 35 °C were diluted to 10^5 CFU/mL with fresh CAMHB, and the diluted cultures were preincubated for 2 h. For S. pneumoniae culture, 5% sheep blood (Hanil Comed, Seongnam, Korea) was added. […] Culture aliquots (0.1 mL) were removed after 0, 2, 4, 6 and 24 h of incubation, and serial 10-fold dilutions were prepared in saline as needed. The numbers of viable cells were determined on drug-free MHA plates after 20 h of incubation. A compound was considered bactericidal if the original inoculum was reduced by 3 log CFU/mL (99.9%) at each concentration or was considered bacteriostatic if the inoculum was reduced by 0–3 log CFU/mL.

[10] = system: S. pneumoniae ATCC49619; assay: Time-kill assay, S. pneumoniae ATCC49619; format: cell-based, Streptococcus pneumoniae; conditions: 2× and 4× MIC, 24 h
Method: as §3

[11] = system: MRSA CCARM 3167; assay: Time-kill assay, MRSA CCARM 3167; format: cell-based, Staphylococcus aureus; conditions: 2× and 4× MIC, 24 h
Method: as §3

[12] = system: VRE 3; assay: Time-kill assay, VRE 3; format: cell-based, vancomycin-resistant Enterococcus; conditions: 2× and 4× MIC, 24 h
Method: as §3

[13] = 26 clinical isolates, read-out: MIC50
[14] = Enterococcus, VRE, 46 clinical isolates
[15] = Enterococcus, VRE, 46 clinical isolates, read-out: MIC90
[16] = Streptococcus pneumoniae, 27 S. pneumoniae isolates, read-out: MIC90
[17] = Streptococcus pneumoniae, 27 clinical isolates

CO[C@@]1(NC(=O)Cc2cccs2)C(=O)N2C(C(=O)O)=C(COC(N)=O)CS[C@@H]21 [Cefoxitin]
MIC50 [1, 13]: 4 µg/mL (≈ 9.36 µM) | MIC90 ([1]; 26 clinical isolates): 4 µg/mL (≈ 9.36 µM) | MIC50 [2, 14]: > 32 µg/mL | MIC90 [2, 15]: > 32 µg/mL | MIC90 ([3]; 27 clinical isolates): >32 µg/mL | MIC90 [3, 16]: > 32 µg/mL | MIC50 [3, 17]: > 32 µg/mL | MIC50 [4]: > 32 µg/mL | MIC90 [4]: > 32 µg/mL | MIC50 [5]: > 32 µg/mL | MIC90 [5]: > 32 µg/mL

CC(C)(O/N=C(\C(=O)N[C@@H]1C(=O)N2C(C(=O)[O-])=C(C[n+]3ccccc3)CS[C@H]12)c1csc(N)n1)C(=O)O [Ceftazidime]
MIC50 [1, 13]: 8 µg/mL (≈ 14.6 µM) | MIC90 ([1]; 26 clinical isolates): 16 µg/mL (≈ 29.3 µM) | MIC50 [6]: > 32 µg/mL | MIC90 [6]: > 32 µg/mL | MIC50 [7]: 32 µg/mL (≈ 58.5 µM) | MIC90 [7]: > 32 µg/mL | MIC50 [2, 14]: > 32 µg/mL | MIC90 [2, 15]: > 32 µg/mL | MIC90 ([3]; 27 clinical isolates): >32 µg/mL | MIC90 [3, 16]: > 32 µg/mL | MIC50 [3, 17]: > 32 µg/mL | MIC50 [4]: > 32 µg/mL | MIC90 [4]: > 32 µg/mL | MIC50 [5]: > 32 µg/mL | MIC90 [5]: > 32 µg/mL

CCCCCCCCCC(=O)N[C@@H](Cc1c[nH]c2ccccc12)C(=O)N[C@H](CC(N)=O)C(=O)N[C@@H](CC(=O)O)C(=O)N[C@@H]1C(=O)NCC(=O)N[C@@H](CCCN)C(=O)N[C@@H](CC(=O)O)C(=O)N[C@H](C)C(=O)N[C@@H](CC(=O)O)C(=O)NCC(=O)N[C@H](CO)C(=O)N[C@@H]([C@H](C)CC(=O)O)C(=O)N[C@@H](CC(=O)c2ccccc2N)C(=O)O[C@@H]1C [Daptomycin]
MIC50 [1, 13]: 2 µg/mL (≈ 1.23 µM) | MIC90 ([1]; 26 clinical isolates): 4 µg/mL (≈ 2.47 µM) | MIC50 [6]: 2 µg/mL (≈ 1.23 µM) | MIC90 [6]: 4 µg/mL (≈ 2.47 µM) | MIC50 [7]: 2 µg/mL (≈ 1.23 µM) | MIC90 [7]: 4 µg/mL (≈ 2.47 µM) | MIC90 ([2]; 46 clinical isolates): 8 µg/mL (≈ 4.94 µM) | MIC50 [2, 14]: 4 µg/mL (≈ 2.47 µM) | MIC90 ([2]; Enterococcus, 46 VRE isolates, read-out: MIC90): 8 µg/mL (≈ 4.94 µM) | MIC90 ([3]; 27 clinical isolates): 8 µg/mL (≈ 4.94 µM) | MIC90 [3, 16]: 8 µg/mL (≈ 4.94 µM) | MIC50 [3, 17]: 2 µg/mL (≈ 1.23 µM) | MIC50 [4]: 4 µg/mL (≈ 2.47 µM) | MIC90 [4]: 8 µg/mL (≈ 4.94 µM) | MIC50 [5]: 4 µg/mL (≈ 2.47 µM) | MIC90 [5]: 8 µg/mL (≈ 4.94 µM)

CNC(C)C1CCC(N)C(OC2C(N)CC(N)C(OC3OCC(C)(O)C(NC)C3O)C2O)O1 (centres unmarked) [Gentamicin]
MIC50 [1, 13]: 1 µg/mL (≈ 2.09 µM) | MIC90 ([1]; 26 clinical isolates): > 32 µg/mL | MIC50 [6]: 32 µg/mL (≈ 67 µM) | MIC90 [6]: > 32 µg/mL | MIC50 [7]: > 32 µg/mL | MIC90 [7]: > 32 µg/mL | MIC50 [2, 14]: > 32 µg/mL | MIC90 [2, 15]: > 32 µg/mL | MIC50 [3, 17]: 32 µg/mL (≈ 67 µM) | MIC90 ([3]; Streptococcus pneumoniae, 27 clinical isolates, read-out: MIC90): > 32 µg/mL | MIC50 [4]: > 32 µg/mL | MIC90 [4]: > 32 µg/mL | MIC50 [5]: > 32 µg/mL | MIC90 [5]: > 32 µg/mL

C[C@H]1COc2c(N3CCN(C)CC3)c(F)cc3c(=O)c(C(=O)O)cn1c23 [Levofloxacin]
MIC50 [1, 13]: 0.25 µg/mL (≈ 0.692 µM) | MIC90 ([1]; 26 clinical isolates): 0.5 µg/mL (≈ 1.38 µM) | MIC50 [6]: 16 µg/mL (≈ 44.3 µM) | MIC90 [6]: > 32 µg/mL | MIC50 [7]: 8 µg/mL (≈ 22.1 µM) | MIC90 [7]: > 32 µg/mL | MIC50 [2, 14]: > 32 µg/mL | MIC90 [2, 15]: > 32 µg/mL | MIC90 ([3]; 27 clinical isolates): 16 µg/mL (≈ 44.3 µM) | MIC90 [3, 16]: 16 µg/mL (≈ 44.3 µM) | MIC50 [3, 17]: 0.5 µg/mL (≈ 1.38 µM) | MIC50 [4]: 2 µg/mL (≈ 5.53 µM) | MIC90 [4]: 32 µg/mL (≈ 88.6 µM) | MIC50 [5]: 16 µg/mL (≈ 44.3 µM) | MIC90 [5]: 32 µg/mL (≈ 88.6 µM)

C[C@@H](O)[C@H]1C(=O)N2C(C(=O)O)=C(S[C@@H]3CN[C@H](C(=O)N(C)C)C3)[C@H](C)[C@H]12 [Meropenem]
MIC50 [1]: 0.125 µg/mL (≈ 0.326 µM) | MIC90 ([1]; 26 clinical isolates): 0.25 µg/mL (≈ 0.652 µM) | MIC50 [2, 14]: > 32 µg/mL | MIC90 [2, 15]: > 32 µg/mL | MIC90 ([3]; 27 clinical isolates): 4 µg/mL (≈ 10.4 µM) | MIC90 [3, 16]: 4 µg/mL (≈ 10.4 µM) | MIC50 [3, 17]: 0.5 µg/mL (≈ 1.3 µM) | MIC50 [4]: 4 µg/mL (≈ 10.4 µM) | MIC90 [4]: 16 µg/mL (≈ 41.7 µM) | MIC50 [5]: > 32 µg/mL | MIC90 [5]: > 32 µg/mL

Cc1onc(-c2ccccc2)c1C(=O)N[C@@H]1C(=O)N2[C@@H]1SC(C)(C)[C@@H]2C(=O)O [Oxacillin]
MIC50 [1, 13]: 0.5 µg/mL (≈ 1.25 µM) | MIC90 ([1]; 26 clinical isolates): 1 µg/mL (≈ 2.49 µM) | MIC50 [6]: > 32 µg/mL | MIC90 [6]: > 32 µg/mL

CO/N=C(\C(=O)N[C@@H]1C(=O)N2C(C(=O)O)=C(CSc3nc(=O)c(=O)[nH]n3C)CS[C@H]12)c1csc(N)n1 [ceftriaxone]
protein-bound [8]: > 90%

O=C(O)c1cn(C2CC2)c2cc(N3CCNCC3)c(F)cc2c1=O [ciprofloxacin]
time-kill activity [9]: bactericidal (considered bactericidal if the original inoculum was reduced by 3 log CFU/mL (99.9%) at each concentration) | time-kill activity [10]: bactericidal (considered bactericidal if the original inoculum was reduced by 3 log CFU/mL (99.9%) at each concentration) | time-kill activity [11]: bactericidal (considered bactericidal if the original inoculum was reduced by 3 log CFU/mL (99.9%) at each concentration) | time-kill activity [12]: bactericidal (considered bactericidal if the original inoculum was reduced by 3 log CFU/mL (99.9%) at each concentration)

teicoplanin
protein-bound [8]: > 90%
